Laboratory results reported in patent US20260224732A1, “BIOPOLYMER PROTECTED OLIGONUCLEOTIDES FOR DRUG DELIVERY” (THE ROYAL INSTITUTION FOR THE ADVANCEMENT OF LEARNING / …, priority 2023, published 2026).

What was measured:
[1] = cited from earlier work
[2] = test system: Epithelial cells; experiment: Cellular viability with CA and CA-R mixes; format: cell-based
Source text: Magnification of 10×, scale bar=100 μm, dapi in blue and factin in red.
Cellular viability. To be applicable in biological context, the toxicity of the CA and the combined CA-R mixes were verified. Epithelial cells were cultivated in media supplemented with various CA-R mixes and acidified at pH 6. Both the cellular viability and morphology was studied over a 5 day period.

O=c1[nH]c(=O)[nH]c(=O)[nH]1 [CA, cyanuric acid]
pKa [1]: 6.9
toxicity in vitro [2]: low toxicity
viability ([2]; after 5 days, pH 6, CA 20 mM alone or CA 20 mM plus the named CA-R (CAC2NH2 30 mM, CAC6NH2 12 mM)): 91±2%
